Data taken from ChEMBL document CHEMBL2331398, “Synthesis and growth inhibition activity of fluorinated derivatives of tamoxifen” (2013).

Experiments:
Format in all cases: functional
M21 = test: Growth inhibition of human M21 cells
MDA-MB-231 = test: Growth inhibition of estrogen-independent human MDA-MB-231 cells
HT-29 = test: Growth inhibition of human HT-29 cells
MCF7 = test: Growth inhibition of estrogen-dependent human MCF7 cells

SMILES | GI50 (M21) [µM] | GI50 (MDA-MB-231) [µM] | GI50 (HT-29) [µM] | GI50 (MCF7) [µM]
Oc1ccc(C(=C(F)c2cccc(C(F)(F)F)c2)c2ccccc2)cc1 | 89.6 | 105 | 59.8 | 71.7
CN(C)CCOc1ccc(/C(=C(/F)c2ccccc2)c2ccc(O)cc2)cc1 | 4.4 | 7.3 | 8.7 | 3.6
Oc1ccc(/C(=C(\F)c2ccccc2)c2ccc(OCCN3CCCC3)cc2)cc1 | 6.8 | 10.6 | 8.9 | 5.6
OCc1ccc(/C(=C(\F)c2ccccc2)c2ccc(OCCN3CCCCC3)cc2)cc1 | 5.9 | 12.6 | 6.9 | 7.4
O=Cc1ccc(/C(=C(\F)c2ccccc2)c2ccc(OCCN3CCCCC3)cc2)cc1 | 4.2 | 10.6 | 5.9 | 5.6
F/C(=C(/c1ccccc1)c1ccc(OCCN2CCCCC2)cc1)c1ccccc1 | 5.6 | 12.5 | 7.3 | 8.8
CN(C)CCOc1ccc(/C(=C(/F)c2ccccc2)c2ccccc2)cc1 | 13.5 | 22.2 | 10.5 | 10.4
F/C(=C(\c1ccccc1)c1ccc(OCCN2CCCC2)cc1)c1ccccc1 | 44 | > 100 | 40.3 | 41.7
F/C(=C(\c1ccccc1)c1ccc(OCCN2CCCCC2)cc1)c1ccccc1 | 5.8 | 14.4 | 8.7 | 6.5
Oc1ccc(/C(=C(\F)c2ccccc2)c2ccc(OCCN3CCCCC3)cc2)cc1 | 15.9 | 25.8 | 8.9 | 8.4
Oc1ccc(C(=C(F)c2ccccc2)c2ccccc2)cc1 (mixture of isomers) | 53 | 46.9 | 32.8 | 21.3
CC/C(=C(\c1ccccc1)c1ccc(OCCN(C)C)cc1)c1ccccc1 [TAMOXIFEN] | 11 | 18.8 | 9.5 | 
